Results: patent US7919077B2, “Pharmaceutical compositions comprising CCL2 and use of same for the treatment of inflammation” (Yeda Research and Development Co. Ltd., priority 2006, dated 2011)

Legend:
[1] = OVA sensitization and challenge mouse asthma model; format: in vivo, BALB/c mice; details: OVA-challenged mice
Description: Ovalbumin (OVA) sensitization, challenge and treatment with CCL2—OVA sensitization and challenge were effected following a previously described protocol [Flaishon, L., et al., J. Immunol: Cutting edge 168: 3707 (2002)], BALB/c mice (average: 9 mice/group) were sensitized for OVA by intraperitoneal injections with 100 μg of chicken egg ovalbumin (OVA; Sigma-Aldrich, St. Louis, Mo.) mixed with 2 mg of aluminum hydroxide (Pierce, Rockford, Ill.) in 300 μl PBS (control group mice were injected with PSB alone). Injections were given on day 0, 7, and 14. 15 days after initial sensitization, and following, animals were challenged daily for 5 days (days 15-19) by inhaling 4% OVA in PBS, administered by an ultrasonic nebulizer (DeVilbiss, Somersel, Pa.) for 20 minutes, while the control group was challenged with PBS alone.
One of the groups injected and challenged by OVA was additionally injected i.p. with 300 μl PBS from the first day of OVA inhalation (day 15), for 5 days 20 minutes before each inhalation, and another group was additionally injected with murine CCL2 (60 ng CCL2 per animal per day). PBS-treated control group was PBS challenged and PBS injected. On day 18, 2 hours following inhalation, mice were anesthetized by an i.p. injection of 0.2 ml Ketamine/xylazine, and airway hyper-responsiveness (AHR) was determined by calculating the enhanced respiratory pause (Penh), a function of the ratio of peak expiratory flow to peak inspiratory flow and a function of the timing of expiration, measured in a plethysmographic box during expiration. Delta Penh was calculated by subtracting control Penh measurements, before antigen challenge, from the Penh measurements after antigen challenge. […] On day 19 the mice were sacrificed 2 hours after the last inhalation.
Lung histology—Lungs from mice participating in the OVA sensitization and challenge assay were inflated with 1 ml of 10% formalin until distended. Samples for paraffin sectioning were immersed in 10% formalin and fixed for 48 hours. The tissues were then embedded in paraffin and 2-3 micrometer sections were prepared. […]

naïve T cells = assay: Transwell migration assay, naïve T cells; format: cell-based, mice; details: cells pre-treated 30 min with CCL2 0.1 ng/ml, 3 hours migration
Description: Stimulation of T cells—Cell stimulation was performed as previously described [Flaishon et al., J Biol Chem. (2001) 276:46701-46706]. Briefly, 1×10^7 T cells were suspended in 1 ml DMEM cell medium containing 10% (v/v) Fetal Calf Serum (FCS). Next, 0.1 ng/ml CCL2 (CytoLab) was added to each tube and the tubes were immediately placed in 37° C. for 30 minutes. Immediately after stimulation, cells were washed and handled as described hereinbelow.
Transwell migration assay—Chemotaxis was assayed using Transwell chambers as was previously described [Flaishon, L. F., et al., J. Biol. Chem. 276:46701 (2001)]. Naive T cells were suspended for 30 minutes with RPMI medium with or without CCL2 (0.1 ng/ml, Peprotech Inc., Rocky Hill, N.J.), and thereafter placed in the upper chamber of a 24 well Transwell plate, and allowed to migrate towards CXCL12 (SDF-1, 0.1 mg/ml PeproTech, Inc., Rocky Hill, N.J.) or to the secondary lymphoid tissue chemokine (SLC, CCL21, 0.4 mg/ml; PeproTech, Inc., Rocky Hill, N.J.), placed in the lower chamber. Following 3 hours, the number of the migrating cells found in the lower chamber was evaluated by FACS (FACS calibur, BD bioscience). Assay was repeated 3 times and results were analyzed as percent migration, being the number of migrating cells in the lower chamber as a fraction of the input cells in the upper chamber.

[2] = system: effector (Th1, Th2) T cells; assay: Cytoskeleton rearrangement (actin polymerization), effector T cells; format: cell-based, mice; details: CCL2 0.1 ng/ml
Description: T cell sorting—Spleen and […] were obtained from mice as previously described [Shachar I. and Flavell R. A., Science 274:106 (1996)]. T cells were enriched using the MACS system (Miltenyi Biotec, Auburn, Calif.) according to the manufacturer's protocol. Spleen cells were incubated with anti-CD45R (B220) magnetic beads (Miltenyi Biotec, Auburn, Calif.) and the CD45 negative cells were collected. CD4+ T cells were enriched using anti-CD4 magnetic beads (Miltenyi Biotec, Auburn, Calif.). […]
Cytoskeleton rearrangement—T cells were pre-incubated for 30 minutes in the presence or absence of CCL2 (0.1 ng/ml), and then stimulated with either CXCL12 (0.1 mg/ml PeproTech, Inc., Rocky Hill N.J.) or SLC (CCL21, 0.4 mg/ml, PeproTech, Inc., Rocky Hill, N.J.), for 15 seconds. Cells were then immediately fixed with paraformaldehyde, permeabilized and their intracellular F-actin was stained with FITC-phalloidin (Sigma-Aldrich, St. Louis, Mo.), and then analyzed by flow cytometry to determine the state of their cytoskeleton, as previously described [Flaishon, L. F., et al., J. Biol. Chem. 276:46701 (2001)].

[3] = Adjuvant arthritis (AA) rat model; format: in vivo, Lewis rats; details: rats; CCL2 240 ng daily day 0 to day 5; scored from day 10; FIG. 9
Description: Adjuvant Arthritis (AA) induction, assessment and treatment with CCL2-—AA was induced as previously described [Kannan, Theor Biol Med Model. (2005) 2:17] using 1 mg per rat of heat-killed Mt strain H37Ra (Difco). Each experimental and control group included at least eight rats. The day of AA induction was designated as day 0 and disease severity was assessed by direct observation of all four limbs in each animal. An observer blind to the experimental procedure scored AA for clinical manifestation of disease. A relative score between 0 and 4 was assigned to each limb, based on the degree of joint inflammation, redness and deformity. The maximum possible score for an individual animal was 16 [Kannan, supra].
Immediately following AA induction, rats were divided into two groups that were injected daily (from day 0 to day 5) with low dose CCL2 (240 ng in 300 μl of PBS) or PBS as control. Starting from day 10 post induction, the disease was scored as described hereinabove.
Results were presented as the mean±SEM of the difference between the two values for all the animals in each group. Experiments were repeated at least three times and produced similar results.

For “CCL2: mammalian (e.g., human) CCL2 protein, GenBank NM_002982 / NP_002973; murine CCL2 used in the asthma model”, the “peribronchial and perivascular inflammatory infiltrate (inflammatory score 1-4)” value ([1]; CCL2 60 ng per day i.p., FIG. 8e) was “significantly reduced”, the “histological changes in the lungs” value ([1]; CCL2 60 ng per day i.p., FIG. 8d) was “barely detectable” and the “airway responsiveness (delta Penh) to antigen challenge” value ([1]; murine CCL2 60 ng per animal per day i.p. for 5 days, FIG. 8a) was “no airway hyperactivity was observed”. For the same substance, the “inhibition of migration of naïve T cells towards CXCL12” value (naïve T cells; FIG. 2a) was 40-50%, the “inhibition of migration of naïve T cells towards CCL21” value (naïve T cells; FIG. 2b) was 40-50% and the “CCL21 induced cytoskeleton rearrangement of effector cells” value ([2]; CCL21 0.4 mg/ml 15 seconds) was “down-regulated”. The “CXCL12 induced cytoskeleton rearrangement of effector cells” value ([2]; CXCL12 15 seconds) was “down-regulated” and the “adjuvant arthritis disease score (max 16)” value [3] was “significantly inhibited the onset of the disease”.
